The numbers were not newly measured in patent US20120322868A1, “FOOD PRODUCTS, PREPARATION, AND THERAPEUTIC METHODS” (priority 2010, published 2012), which cites them from elsewhere.

Data set [1] concerns insulin levels and insulin sensitivity. Particulars: hyperinsulinemic patients with polycystic ovary syndrome.
In data set [2] the test system is atherosclerosis. Conditions: apolipoprotein E-deficient mice.
The subject of data set [3] is immunological functions and plasma albumin. Particulars: HIV+ patients.
Data set [4] has as its system cancer. Particulars: dietary protein, laboratory animals (Campbell).

Take `CC(=O)N[C@@H](CS)C(=O)O` [NAC, N-acetyl-L-cysteine]: the “insulin levels and insulin sensitivity” value in data set [1] is “improves insulin levels and insulin sensitivity”. The atherosclerosis entry in data set [2] is listed as “reduce atherosclerosis”. Also, the “immunological functions and plasma albumin concentrations” value in data set [3] is listed as “marked increase”.
In the case of casein, the promotion of cancer entry in data set [4] was “promotes cancer”.
